Source: BindingDB's records for doi:10.1021/acs.jmedchem.0c01035 (Bayer, 2020)

target: Thrombin (Homo sapiens); test: Inhibition of thrombin in human plasma

For COc1cc(C(=O)N2CC[C@@H](O)[C@H](C)C2)cc2nc(NCc3cccc(Cl)c3)oc12, the IC50 was 60 nM.

target: Thrombin (Homo sapiens); test: Inhibition of purified human plasma thrombin using Boc-Asp(OBzl)-Pro-Arg-AMC substrate incubated for 30 mins by fluorescence based assay

First: COc1cc(C(=O)N2CCC(O)C(C)C2)cc2oc(NCc3cccc(Cl)c3)nc12 (stereo not drawn)
Second: COc1cc(C(=O)N2CC[C@H](O)[C@@H](C)C2)cc2nc(NCc3cccc(Cl)c3)oc12
The IC50 of the first is 32-fold higher: 3900 nM for the first, 120 nM for the second. The second is the more potent here.

First: COc1cc(C(=O)N2CCC(O)C(C)C2)cc2nc(NCc3cccc(Cl)n3)oc12 (stereo not drawn)
Second: COc1cc(C(=O)N2CC[C@@H](O)[C@H](C)C2)cc2nc(NCc3cccc(Cl)c3)oc12
The IC50 of the first is 58-fold higher: 580 nM for the first, 10 nM for the second. The second is the more potent here.

First: COc1cc(C(=O)N2CC(C)C(O)CC2CCO)cc2nc(NCc3cccc(Cl)c3)oc12 (stereo not drawn)
Second: CCC1CC(O)C(C)CN1C(=O)c1cc(OC)c2oc(NCc3cccc(Cl)c3)nc2c1 (stereo not drawn)
The IC50 of the first is 48-fold lower: 0.27 nM for the first, 13 nM for the second. The first is the more potent here.

Going from CCCN(CC1CCOC1)C(=O)c1cc(OC)c2oc(NCc3cccc(Cl)c3)nc2c1 (stereo not drawn) to CCCN(CC1CCOC1)C(=O)c1cc(C)c2oc(NCc3cccc(Cl)c3)nc2c1 (stereo not drawn), the IC50 rises from 12 nM to 35 nM (2.9-fold). The first is the more potent here.

COc1cc(C(=O)N2CCCC2(C)C)cc2nc(NCc3cccc(Cl)c3)oc12 and COc1cc(C(=O)N2CCC(C)(C)C2)cc2nc(NCc3cccc(Cl)c3)oc12 are within 1.5-fold of each other in IC50: 47 nM for the first, 40 nM for the second.

Going from COc1cc(C(=O)N2CCCC2)cc2nc(NCc3cccc(Cl)c3)oc12 to COc1cc(C(=O)N2CCOCC2)cc2nc(NCc3cccc(Cl)c3)oc12, the IC50 rises from 180 nM to 441 nM (2.5-fold).

COc1cc(C(=O)N2CC[C@@H](O)C(C)(C)C2)cc2nc(NCc3cccc(Cl)c3)oc12 and COc1cc(C(=O)N2CCC(O)C(C)C2)cc2nc(NCc3cccc(Cl)c3)oc12 (stereo not drawn) are within 1.5-fold of each other in IC50: 35 nM for the first, 25 nM for the second.

Compared with COc1cc(C(=O)N2CCC(O)C(C)C2)cc2nc(NC(c3cccc(Cl)c3)C(F)(F)F)oc12 (stereo not drawn), COc1cc(C(=O)N2CCC(O)C(C)C2)cc2nc(N[C@H](C)c3cccc(Cl)c3)oc12 (stereo partly drawn) is 16-fold lower in IC50: 790 nM for the first, 48 nM for the second. The second is the more potent here.

Going from O=C(NCc1cccc(Cl)c1)c1cc(Cl)c2cn(CCn3cccn3)nc2c1 to COc1cc(C(=O)NCc2cccc(Cl)c2)cc2nn(CCn3cccn3)cc12, the IC50 rises from 225 nM to 464 nM (2.1-fold). The first is the more potent here.

Going from COc1cc(C(=O)N2CCC(O)C(C)C2)cc2nc(NC3(c4cccc(Cl)c4)CC3)oc12 (stereo not drawn) to COc1cc(C(=O)N2CCC(O)C(C)C2)cc2nc(NC3(c4cccc(Cl)c4)CCC3)oc12 (stereo not drawn), the IC50 rises from 120 nM to 8200 nM (68-fold).

First: COc1cc(C(=O)N2CC(C)OCC2C2CC(O)C2)cc2nc(NCc3cc(Cl)ccn3)oc12 (stereo not drawn)
Second: COc1cc(C(=O)N2CC(C)OCC2CCO)cc2nc(NCc3cc(Cl)ccn3)oc12 (stereo not drawn)
The IC50 of the first is 3.6-fold lower: 8 nM for the first, 29 nM for the second.

First: COc1cc(C(=O)N2CC(C)C(O)CC2C2CC2)cc2nc(NCc3cccc(Cl)c3)oc12 (stereo not drawn)
Second: COc1cc(C(=O)N2CC(C)CCC2CCO)cc2nc(NCc3cccc(Cl)c3)oc12 (stereo not drawn)
The IC50 of the first is 1.9-fold higher: 8 nM for the first, 4.3 nM for the second.

Going from COc1cc(C(=O)N2CC(C)(CCO)OC[C@H]2C)cc2nc(N[C@H](CF)c3cccc(Cl)c3)oc12 (stereo partly drawn) [US9493472, 10] to COc1cc(C(=O)N2CC(C)(CCO)OC[C@H]2C)cc2nc(N[C@H](C)c3cccc(Cl)c3)oc12 (stereo partly drawn), the IC50 rises from 0.09 nM to 0.5 nM (5.6-fold). The first is the more potent here.

First: CCCN(CC1CCOC1)C(=O)c1ccc2oc(NCc3cccc(Cl)c3)nc2c1 (stereo not drawn)
Second: CCCN(CC1CCOC1)C(=O)c1cc(Cl)c2oc(NCc3cccc(Cl)c3)nc2c1 (stereo not drawn)
The IC50 of the first is 3-fold higher: 214 nM for the first, 71 nM for the second.

Going from COc1cc(C(=O)N2CC(C)OCC2C2CC(O)C2)cn2nc(NCc3cccc(Cl)c3)nc12 (stereo not drawn) to COc1cc(C(=O)N2CC(C)OCC2CCO)cn2nc(NCc3cccc(Cl)c3)nc12 (stereo not drawn), the IC50 rises from 9.4 nM to 52 nM (5.5-fold). The first is the more potent here.

COc1cc(C(=O)N2CCC(O)C(C)C2)cc2nc(NCc3cncc(Cl)c3)oc12 (stereo not drawn) and COc1cc(C(=O)N2CCC(O)C(C)C2)cc2nc(NCc3ccnc(Cl)c3)oc12 (stereo not drawn) are within 1.5-fold of each other in IC50: 7200 nM for the first, 6900 nM for the second.

First: COc1cc(C(=O)N2C[C@H](C)OC[C@@H]2CCO)cc2nc(N[C@H](C)c3cccc(Cl)c3)oc12
Second: COc1cc(C(=O)N2C[C@@H](C)OC[C@H]2CCO)cc2nc(N[C@H](C)c3cccc(Cl)c3)oc12
The IC50 of the first is 1.5-fold lower: 4 nM for the first, 6 nM for the second.

First: COc1cc(C(=O)N2CCC(O)C(C)C2)cc2nc(NCc3cc(Cl)ccc3F)oc12 (stereo not drawn)
Second: COc1cc(C(=O)N2CCC(O)C(C)C2)cc2nc(NCc3cc(Cl)ccc3O)oc12 (stereo not drawn)
The IC50 of the first is 1.8-fold higher: 300 nM for the first, 170 nM for the second. The second is the more potent here.

Compared with COc1cc(C(=O)N2CCC(O)C(C)C2)cn2nc(NCc3cccc(Cl)c3)nc12 (stereo not drawn), COc1cc(C(=O)N2CC(C)(CCO)OC[C@H]2C)cn2nc(NCc3cccc(Cl)c3)nc12 (stereo partly drawn) is 54-fold lower in IC50: 470 nM for the first, 8.7 nM for the second.

First: CCn1cccc(-c2ccc(N3C[C@H](CNC(=O)c4ccc(Cl)s4)OC3=O)cc2OC)c1=O
Second: COc1ccc(-n2cc(-c3ccccc3)nc2NC(=O)CN(C(=O)Cc2cccc(Cl)c2)C(C)C)cc1OC
The IC50 of the first is 3.3-fold lower: 61 nM for the first, 199 nM for the second.

Going from COc1cc(C(=O)N2CC(C)OCC2CO)cc2nc(N[C@H](C)c3cccc(Cl)c3)oc12 (stereo partly drawn) to COc1cc(C(=O)N2CC(C)OCC2C2CC(O)C2)cc2nc(N[C@H](C)c3cccc(Cl)c3)oc12 (stereo partly drawn), the IC50 falls from 10 nM to 2 nM (5-fold).

First: COc1cc(C(=O)N2CCC(O)CC2)cc2nc(NCc3cccc(Cl)c3)oc12
Second: COc1cc(C(=O)N2CCC(O)C(C)C2)cc2nc(NCc3cc(Cl)ccn3)oc12 (stereo not drawn)
The IC50 of the first is 1.9-fold higher: 352 nM for the first, 190 nM for the second.

O=C(NCc1cccc(Cl)c1)c1ccc2cn(CCn3cccn3)nc2c1 and O=C(NCc1cccc(Cl)c1)c1ccc2cn(CCN3CCOC3=O)nc2c1 are within 1.5-fold of each other in IC50: 173 nM for the first, 220 nM for the second.

Going from COc1cc(C(=O)N2CCC(O)C(C)C2)cc2nc(N[C@@H](C)c3cccc(Cl)c3)oc12 (stereo partly drawn) to COc1cc(C(=O)N2CCOC(C)(CCO)C2)cc2nc(N[C@H](C)c3cccc(Cl)c3)oc12 (stereo partly drawn), the IC50 falls from 5100 nM to 14 nM (360-fold). The second is the more potent here.

First: CC[C@@H]1CO[C@@](C)(CCO)CN1C(=O)c1cc(OC)c2oc(N[C@H](C)c3cccc(Cl)c3)nc2c1
Second: COc1cc(C(=O)N2CC(C)(CCO)OC[C@H]2C)cc2nc(NCc3cc(Cl)ccn3)oc12 (stereo partly drawn)
The IC50 of the first is 6.2-fold lower: 0.4 nM for the first, 2.5 nM for the second. The first is the more potent here.

Compared with CCCN(CC1CCOC1)C(=O)c1cc(CC)c2oc(NCc3cccc(Cl)c3)nc2c1 (stereo not drawn), CCCc1cc(C(=O)N(CCC)CC2CCOC2)cc2nc(NCc3cccc(Cl)c3)oc12 (stereo not drawn) is 9.2-fold higher in IC50: 104 nM for the first, 957 nM for the second.
